Experiments:
[1] = system: HMEC-1 (human dermal microvascular endothelial cells); assay: Cell growth assay, HMEC-1 cells; format: cell-based; details: HMEC-1, 96 h, racemic compounds, 4 days, Coulter counter
Experimental: (§1) HeLa (human cervix carcinoma) and CEM (human T-lymphoblast) were grown in Dulbecco’s modified Eagle’s medium (DMEM; Gibco, Carlsbad, CA, USA), supplemented with 0.01 M Hepes (Gibco) and 1 mM sodium pyruvate (Gibco) in a humidified 5% CO2 incubator at 37 °C. HMEC-1 (human microvascular endothelial cells) was maintained in Dulbecco’s modified Eagle’s medium (DMEM)/low glucose containing glutamine (2 mM). The media were supplemented with 10% fetal bovine serum (FBS, Gibco), penicillin ([…]), streptomycin ([…]), and amphotericin B ([…]). CEM cells were seeded in 96-well plates at 60,000 cells/well in the presence of different concentrations of the compounds, and allowed to proliferate for 72 h. HeLa cells were seeded in 96-well plates at 15,000 cells/well in the presence of different concentrations of the compounds. After 4 days of incubation, the cells were trypsinized and counted. HMEC-1 cells were seeded in 48-well plates at 20,000 cells/well. After 24 h, the compounds were added at different concentrations. The cells were allowed to proliferate for 4 days in the presence of the compounds, trypsinized, and counted. All cells were counted by means of a Coulter counter (Analis, Belgium).

[2] = system: HT-29 (colorectal adenocarcinoma); assay: Cell growth assay (Trypan blue), HT-29 cells; format: cell-based, human; details: 72 h
Experimental: (§2) A2780 (human ovarian carcinoma) and HT-29 (human colorectal adenocarcinoma) were grown in RPMI 1640 (Sigma Chemical Co., St. Louis, MO, USA), and MSTO-211H (human biphasic mesothelioma) were grown in RPMI 1640 (Sigma Chemical Co.) supplemented with 2.38 g/L Hepes, 0.11 g/L pyruvate sodium, and 2.5 g/L glucose. Then, 1.5 g/L NaHCO3, 10% heat-inactivated fetal calf serum (Biowest), 100 U/mL penicillin, 100 μg/mL streptomycin, and 0.25 μg/mL amphotericin B (Sigma Chemical Co.) were added to the media. The cells were cultured at 37 °C in a moist atmosphere of 5% carbon dioxide in air. Cells (2.5–3 × 10^4) were seeded into each well of a 24-well cell culture plate. After incubation for 24 h, various concentrations of the test agents were added to the complete medium and incubated for a further 72 h. A Trypan blue assay was performed to determine cell viability. Cytotoxicity data were expressed as IC50 values, i.e., the concentration of the test compound able to induce a 50% reduction in cell number compared with control cultures.

[3] = system: HeLa (human cervix carcinoma cells); assay: Cell growth assay, HeLa cells; format: cell-based; details: 96 h, racemic compounds, 4 days, Coulter counter
Experimental: as §1

[4] = system: MSTO-211H (biphasic mesothelioma); assay: Cell growth assay (Trypan blue), MSTO-211H cells; format: cell-based, human; details: for IC50: 72 h, Trypan blue
Experimental: as §2

[5] = system: A2780 (ovarian carcinoma); assay: Cell growth assay (Trypan blue), A2780 cells; format: cell-based, human; details: 72 h, Trypan blue
Experimental: as §2

[6] = system: CEM (human T-lymphocyte cells); assay: Cell growth assay, CEM cells; format: cell-based; details: racemic compounds, 72 h, Coulter counter
Experimental: as §1

[7] = Homo sapiens, HT-29, racemic compounds
[8] = Homo sapiens, MSTO-211H, racemic compounds
[9] = Homo sapiens, A2780, 72 h, racemic compounds
[10] = Homo sapiens, HT-29, pure enantiomers
[11] = Homo sapiens, MSTO-211H, pure enantiomers
[12] = Homo sapiens, A2780, 72 h, pure enantiomers

| SMILES | IC50 [1] [µM] | IC50 [2, 7] [µM] | IC50 [3] [µM] | IC50 [4, 8] [µM] | IC50 [5, 9] [µM] | IC50 [6] [µM] | melting point [°C] | IC50 ([2]; pure enantiomers) [µM] | cytotoxic effect on MSTO-211H (in words) ([4]; pure enantiomers) | IC50 ([4]; pure enantiomers) [µM] | IC50 ([5]; pure enantiomers) [µM] | IC50 [2, 10] [µM] | IC50 [4, 11] [µM] | IC50 [5, 12] [µM] |
| --- | --- | --- | --- | --- | --- | --- | --- | --- | --- | --- | --- | --- | --- | --- |
| Cc1ccc2c(n1)C(/N=C/c1cn(C)cn1)CCC2 (centres unmarked) [Compound 4a, (E)-1-(1-methyl-1H-imidazol-4-yl)-N-(2-methyl-5,6,7,8-tetrahydroquinolin-8-yl)methanimine] | > 100 | 42 ± 8 | > 100 | 14 ± 1 | 11 ± 2 | > 100 | 103.2 to 104.5 |  |  |  |  |  |  |  |
| Cc1ccc(O)c(CN[C@H]2CCCc3ccc(C)nc32)c1 [(S)-2b, 4-methyl-2-(((2-methyl-5,6,7,8-tetrahydroquinolin-8-yl)amino)methyl)phenol] |  |  |  |  |  |  |  | > 20 | inactive | > 20 | 11.5 ± 2.6 |  |  |  |
| Cc1ccc(O)c(CN[C@@H]2CCCc3ccc(C)nc32)c1 [(R)-2b, 4-methyl-2-(((2-methyl-5,6,7,8-tetrahydroquinolin-8-yl)amino)methyl)phenol] |  |  |  |  |  |  |  |  | inactive |  |  | > 20 | > 20 | 15.2 ± 2.3 |
| Cc1ccc2c(n1)C(/N=C/c1cccc(C)c1O)CCC2 (centres unmarked) [Compound 1a, (E)-2-methyl-6-(((2-methyl-5,6,7,8-tetrahydroquinolin-8-yl)imino)methyl)phenol] | > 100 | 83 ± 5 | > 100 | 69 ± 3 | 65 ± 9 | > 100 | 102.2 to 103.8 |  |  |  |  |  |  |  |
| Cc1ccc2c(n1)C(/N=C/c1ccccn1)CCC2 (racemic) [Compound 3a, (E)-N-(2-methyl-5,6,7,8-tetrahydroquinolin-8-yl)-1-(pyridin-2-yl)methanimine] | 77 ± 32 | 42 ± 6 | 34 ± 6 | 30 ± 8 | 16 ± 2 | 33 ± 7 | 102.8 to 104.3 |  |  |  |  |  |  |  |
| Cc1ccc2c(n1)C(NCc1cccc(C)c1O)CCC2 (centres unmarked) [Compound 1b, 2-methyl-6-(((2-methyl-5,6,7,8-tetrahydroquinolin-8-yl)amino)methyl)phenol] | 63 ± 2 | 57 ± 6 | 93 ± 10 | 28 ± 4 | 42 ± 5 | 66 ± 47 | 89.2 to 91.1 |  |  |  |  |  |  |  |
| Cc1ccc2c(n1)C(NCc1ncc[nH]1)CCC2 (centres unmarked) [Compound 5b, N-((1H-imidazol-2-yl)methyl)-2-methyl-5,6,7,8-tetrahydroquinolin-8-amine] | 53 | 73 ± 6 | 71 ± 3 | 44 ± 5 | 38 ± 7 | 51 ± 13 | 86.7 to 88.1 |  |  |  |  |  |  |  |
| Cc1ccc2c(n1)C(NCc1cn(C)cn1)CCC2 (centres unmarked) [Compound 4b, 2-methyl-N-((1-methyl-1H-imidazol-4-yl)methyl)-5,6,7,8-tetrahydroquinolin-8-amine] | 89 ± 2 | > 100 | > 100 | > 100 | > 100 | > 100 | 90.3 to 92.2 |  |  |  |  |  |  |  |
| Cc1ccc(O)c(/C=N/C2CCCc3ccc(C)nc32)c1 (centres unmarked) [Compound 2a, (E)-4-methyl-2-(((2-methyl-5,6,7,8-tetrahydroquinolin-8-yl)imino)methyl)phenol] | > 100 | > 100 | > 100 | 95 ± 5 | > 100 | > 100 | 101.8 to 103.4 |  |  |  |  |  |  |  |
| Cc1ccc2c(n1)C(NCc1cc3c4c(c1O)CCCN4CCC3)CCC2 (centres unmarked) [Compound 6b, 9-(((2-methyl-5,6,7,8-tetrahydroquinolin-8-yl)amino)methyl)-2,3,6,7-tetrahydro-1H,5H-pyrido[3 ,2,1-ij]quinolin-8-ol] | 81 ± 26 | 74 ± 3 | > 100 | 77 ± 7 | 36 ± 4 | 77 ± 32 | 94.3 to 95.5 |  |  |  |  |  |  |  |
| Cc1ccc2c(n1)[C@@H](/N=C/c1ncc[nH]1)CCC2 [(S)-5a, (E)-1-(1H-imidazol-2-yl)-N-(2-methyl-5,6,7,8-tetrahydroquinolin-8-yl)methanimine] |  |  |  |  |  |  |  | > 20 | ineffective | > 20 | 17.2 ± 3 |  |  |  |
| Cc1ccc2c(n1)C(/N=C/c1cc3c4c(c1O)CCCN4CCC3)CCC2 (centres unmarked) [Compound 6a, (E)-9-(((2-methyl-5,6,7,8-tetrahydroquinolin-8-yl)imino)methyl)-2,3,6,7-tetrahydro-1H,5H-pyrido [3,2,1-ij]quinolin-8-ol] | 82 ± 4 | 46 ± 7 | > 100 | 25 ± 11 | 36 ± 4 | 64 ± 32 | 104.2 to 105.8 |  |  |  |  |  |  |  |
| Cc1ccc(O)c(CNC2CCCc3ccc(C)nc32)c1 (racemic) [Compound 2b, 4-methyl-2-(((2-methyl-5,6,7,8-tetrahydroquinolin-8-yl)amino)methyl)phenol] | 60 ± 2 | 62 ± 8 | 75 ± 11 | 35 ± 10 | 25 ± 5 | 23 ± 4 | 89.5 to 90.8 |  |  |  |  |  |  |  |
| Cc1ccc2c(n1)[C@H](/N=C/c1ccccn1)CCC2 [(R)-3a, (E)-N-(2-methyl-5,6,7,8-tetrahydroquinolin-8-yl)-1-(pyridin-2-yl)methanimine] |  |  |  |  |  |  |  |  |  |  |  | > 20 | 14.9 ± 1.4 | 11.7 ± 2 |
| Cc1ccc2c(n1)C(NCc1ccccn1)CCC2 (centres unmarked) [Compound 3b, 2-methyl-N-(pyridin-2-ylmethyl)-5,6,7,8-tetrahydroquinolin-8-amine] | > 100 | 42 ± 6 | > 100 | 15 ± 3 | 11 ± 3 | > 100 | 87.8 to 89.2 |  |  |  |  |  |  |  |
| Cc1ccc2c(n1)[C@@H](/N=C/c1ccccn1)CCC2 [(S)-3a, (E)-N-(2-methyl-5,6,7,8-tetrahydroquinolin-8-yl)-1-(pyridin-2-yl)methanimine] |  |  |  |  |  |  |  | > 20 |  | 11.8 ± 2.3 | 11.4 ± 0.4 |  |  |  |
